Measurements published in US20250326769A1, “HETEROAROMATIC MACROCYCLIC ETHER CHEMOTHERAPEUTIC AGENTS” (Nuvalent, Inc., priority 2022, published 2025).
pIC50, pKi: −log10 of the molar value. Read-outs that look alike come from different tables or passages of the source.

How the values were obtained:
[1] = target: Ba/F3 EML4-ALK v1 I1171N/D1203N (Homo sapiens (Human), UniProt Q9HC35+Q9UM73, D1203N/I1171N); experiment: Ba/F3 cell proliferation assay, EML4-ALK v1 I1171N/D1203N; type: cell-based; settings: for pIC50: Ba/F3 stable cells, 72 hours, CellTiter-Glo; for ETV6-TRKB / EML4-ALK v1 I1171N/D1203N: TRKB selectivity, ratio of Ba/F3 IC50 values
Outline: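 Viability read by CellTiter-Glo luminescence after 72 h exposure to a 3-fold compound dilution series, with IC50 from four-parameter logistic regression. Cells were Ba/F3 rendered IL-3-independent through retroviral expression of EML4-ALK v1 I1171N/D1203N, puromycin-selected.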

[2] = target: TRKB-wt (Homo sapiens (Human), UniProt Q16620); experiment: Biochemical kinase assay, TRKB-wt; settings: apparent inhibitory constant, kinase domain, Morrison equation; read-out: TRKB-wt Ki^app
Outline: (§1)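 Kinase domains (in enzyme solution: ALK I1171N/D1203N 4 nM, ROS1 0.6 nM, ROS1-G2032R 0.5 nM, TRKB 1.5 nM) were mixed with substrate solution holding 2 mM ATP and 26 μM AQT0101 (ALK, ROS1) or AQT0104 (TRKB). Initial rates from 120-min fluorescence kinetics at 30 °C were fitted to the Morrison equation (Ki^app).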

[3] = target: ALK I1171N/D1203N (Homo sapiens (Human), UniProt Q9UM73, D1203N/I1171N); experiment: Biochemical kinase assay, ALK I1171N/D1203N; settings: apparent inhibitory constant, kinase domain, Morrison equation; read-out: ALK-I1171N-D1203N Ki^app
Outline: as §1

[4] = target: Ba/F3 EML4-ALK v1 I1171N (Homo sapiens (Human), UniProt Q9HC35+Q9UM73, I1171N); experiment: Ba/F3 cell proliferation assay, EML4-ALK v1 I1171N; type: cell-based; settings: for pIC50: Ba/F3 stable cells, 72 hours, CellTiter-Glo; for ETV6-TRKB / EML4-ALK v1 I1171N: TRKB selectivity, ratio of Ba/F3 IC50 values
Outline: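 Ba/F3 cells stably transformed with retroviral EML4-ALK v1 I1171N, selected by IL-3 withdrawal and puromycin, grown IL-3-free. Compounds added as 3-fold dilution series, 72 h incubation; viability by CellTiter-Glo luminescence. IC50 from percent inhibition by four-parameter logistic fit, binned A/B/C.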

[5] = target: ROS1-G2032R (Homo sapiens (Human), UniProt P08922, G2032R); experiment: Biochemical kinase assay, ROS1-G2032R; settings: apparent inhibitory constant, kinase domain, Morrison equation; read-out: ROS1-G2032R Ki^app
Method: (§2) First, 250 nL of compound dissolved in DMSO (100-fold of the desired concentration) was dispensed into a 384-well plate. A 12.5 μL substrate solution containing ATP (2 mM) and fluorogenic phosphorylation substrate AQT0101 ([…] for ALK and ROS, AssayQuant) or AQT0104 (26 μM for TRKB, AssayQuant) in buffer (50 mM HEPES pH 7.5, […], 0.5 mM EGTA, 10 mM MgCl2) was added and mixed thoroughly. Then, a 12.5 μL kinase solution containing ALK (1.5 nM, Carna, 08-518), ALK I1171N/D1203N (4 nM, SignalChem, custom-made), ROS1 (0.6 nM, Carma, 08-163), ROS1-G2032R (0.5 nM, SignalChem, R14-121BG), or TRKB-wt (1.5 nM, SignalChem, N17-11G) kinase domains in buffer ([…] pH 7.5, 0.01% Brij-[…], 0.4 mg/mL BSA, 0.5 mM EGTA, and 10 mM MgCl2) was added and mixed thoroughly. The plate was sealed and read by SpectraMax Paradigm at λ=485 nm every 2 minutes for 120 minutes at 30° C. Initial rates of reaction (v) were calculated from the change in fluorescence intensity over time during the initial, linear portion of the reaction. Finally, apparent inhibitory constants (Ki^app) were determined from regression of v and I (inhibitor concentration) to Morrison Equation (E=enzyme concentration): […]
(§3) Compound potency can be interpreted by binning Ki^app values against the targets: bin A for high potency, Ki^app<50 nM; bin B for medium potency, 50 nM≤Ki^app<500 nM; and bin C for low potency, Ki^app≥500 nM. […] “nd” means not determined.

[6] = target: ROS1 (Homo sapiens (Human), UniProt P08922); experiment: Biochemical kinase assay, ROS1-wt; settings: apparent inhibitory constant, kinase domain, Morrison equation; read-out: ROS1-wt Ki^app
Method: as §2, §3

[7] = target: Ba/F3 ETV6-TRKB (Homo sapiens, UniProt Q16620); experiment: Ba/F3 cell proliferation assay, ETV6-TRKB; type: cell-based
Outline: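 Growth inhibition after 72 h compound exposure (3-fold series) was measured by CellTiter-Glo in IL-3-independent Ba/F3 cells stably expressing ETV6-TRKB. A four-parameter logistic fit of percent inhibition versus concentration gave IC50.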

Sequence of Ba/F3 EML4-ALK v1 I1171N/D1203N (Q9UM73 other isoform, or with tags, fused parts or gaps I1171N/D1203N): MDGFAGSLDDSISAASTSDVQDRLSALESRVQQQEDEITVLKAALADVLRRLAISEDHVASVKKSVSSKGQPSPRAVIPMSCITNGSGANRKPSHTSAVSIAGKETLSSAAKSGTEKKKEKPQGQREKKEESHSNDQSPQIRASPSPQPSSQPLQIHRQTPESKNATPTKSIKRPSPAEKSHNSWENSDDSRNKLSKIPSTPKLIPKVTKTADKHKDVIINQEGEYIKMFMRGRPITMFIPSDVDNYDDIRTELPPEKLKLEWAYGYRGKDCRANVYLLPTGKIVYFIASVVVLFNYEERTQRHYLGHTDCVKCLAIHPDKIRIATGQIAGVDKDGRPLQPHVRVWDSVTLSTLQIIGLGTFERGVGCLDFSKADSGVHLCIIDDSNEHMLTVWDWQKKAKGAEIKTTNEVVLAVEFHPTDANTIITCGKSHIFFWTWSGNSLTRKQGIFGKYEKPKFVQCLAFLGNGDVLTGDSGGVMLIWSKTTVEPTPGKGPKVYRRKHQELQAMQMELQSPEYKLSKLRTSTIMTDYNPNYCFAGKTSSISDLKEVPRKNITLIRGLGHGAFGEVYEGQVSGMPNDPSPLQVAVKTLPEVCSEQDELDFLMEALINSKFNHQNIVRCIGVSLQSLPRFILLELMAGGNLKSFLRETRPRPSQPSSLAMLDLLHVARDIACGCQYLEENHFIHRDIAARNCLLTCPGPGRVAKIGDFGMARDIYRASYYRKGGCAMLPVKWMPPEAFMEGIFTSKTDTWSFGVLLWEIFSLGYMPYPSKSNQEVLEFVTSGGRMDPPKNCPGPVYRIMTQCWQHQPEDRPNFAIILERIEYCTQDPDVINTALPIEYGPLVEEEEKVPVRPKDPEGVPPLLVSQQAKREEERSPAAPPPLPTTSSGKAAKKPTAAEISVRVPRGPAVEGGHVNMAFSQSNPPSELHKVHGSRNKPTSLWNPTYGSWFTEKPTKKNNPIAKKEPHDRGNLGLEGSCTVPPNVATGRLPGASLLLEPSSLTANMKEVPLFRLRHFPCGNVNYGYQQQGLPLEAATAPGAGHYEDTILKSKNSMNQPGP
Sequence of Ba/F3 EML4-ALK v1 I1171N (Q9UM73 other isoform, or with tags, fused parts or gaps I1171N): as the sequence (Q9UM73 other isoform, or with tags, fused parts or gaps I1171N/D1203N) above, with N642D counted along it
Sequence of ROS1-G2032R (P08922 1945-2222 G2032R): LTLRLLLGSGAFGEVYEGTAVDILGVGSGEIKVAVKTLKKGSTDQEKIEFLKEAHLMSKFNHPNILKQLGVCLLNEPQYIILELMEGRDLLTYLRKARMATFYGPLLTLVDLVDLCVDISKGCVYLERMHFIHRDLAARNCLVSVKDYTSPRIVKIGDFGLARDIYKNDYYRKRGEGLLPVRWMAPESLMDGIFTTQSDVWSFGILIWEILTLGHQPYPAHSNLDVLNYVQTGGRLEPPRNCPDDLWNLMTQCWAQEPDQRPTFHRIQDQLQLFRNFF
Sequence of ROS1 (P08922 1945-2222): as the sequence (P08922 1945-2222 G2032R) above, with R88G counted along it
Sequence of Ba/F3 ETV6-TRKB (Q16620 32-822 limits assumed, change not shown): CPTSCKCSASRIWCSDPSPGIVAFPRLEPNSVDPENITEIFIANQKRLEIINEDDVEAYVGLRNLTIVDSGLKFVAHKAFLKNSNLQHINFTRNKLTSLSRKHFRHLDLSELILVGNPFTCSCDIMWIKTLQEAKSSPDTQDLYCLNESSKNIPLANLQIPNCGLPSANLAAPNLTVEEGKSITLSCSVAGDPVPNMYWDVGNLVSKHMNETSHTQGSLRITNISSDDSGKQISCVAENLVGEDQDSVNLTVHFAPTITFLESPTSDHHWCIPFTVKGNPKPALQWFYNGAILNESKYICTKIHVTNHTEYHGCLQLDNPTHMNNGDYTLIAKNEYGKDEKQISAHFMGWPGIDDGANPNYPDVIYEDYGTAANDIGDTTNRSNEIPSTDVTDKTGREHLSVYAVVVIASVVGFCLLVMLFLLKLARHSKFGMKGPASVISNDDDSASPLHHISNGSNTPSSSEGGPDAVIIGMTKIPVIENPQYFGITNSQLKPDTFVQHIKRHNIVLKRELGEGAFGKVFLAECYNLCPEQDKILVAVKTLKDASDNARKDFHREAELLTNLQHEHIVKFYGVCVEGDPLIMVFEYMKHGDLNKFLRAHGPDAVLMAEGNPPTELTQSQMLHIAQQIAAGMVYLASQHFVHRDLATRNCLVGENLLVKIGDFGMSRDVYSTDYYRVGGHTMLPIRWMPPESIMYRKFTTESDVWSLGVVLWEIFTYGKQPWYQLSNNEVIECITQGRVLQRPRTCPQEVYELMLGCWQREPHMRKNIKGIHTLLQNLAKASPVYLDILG
Sequence of TRKB-wt (Q16620 538-807): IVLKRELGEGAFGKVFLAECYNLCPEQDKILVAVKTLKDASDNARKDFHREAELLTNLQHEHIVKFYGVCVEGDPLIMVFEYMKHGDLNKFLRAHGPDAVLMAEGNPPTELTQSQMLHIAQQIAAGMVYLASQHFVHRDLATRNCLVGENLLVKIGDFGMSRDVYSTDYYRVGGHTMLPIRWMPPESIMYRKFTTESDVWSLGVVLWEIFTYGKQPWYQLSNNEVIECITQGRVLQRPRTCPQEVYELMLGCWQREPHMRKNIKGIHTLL
Sequence of ALK I1171N/D1203N (Q9UM73 1116-1392 I1171N/D1203N): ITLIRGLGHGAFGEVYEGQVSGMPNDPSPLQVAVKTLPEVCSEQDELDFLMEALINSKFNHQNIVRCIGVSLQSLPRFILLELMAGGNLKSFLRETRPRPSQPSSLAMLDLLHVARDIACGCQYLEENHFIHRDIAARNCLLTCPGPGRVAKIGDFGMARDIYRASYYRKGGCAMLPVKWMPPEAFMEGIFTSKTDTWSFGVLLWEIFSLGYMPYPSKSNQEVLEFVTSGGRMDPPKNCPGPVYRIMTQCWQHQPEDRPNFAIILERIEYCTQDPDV

| pIC50 ([7]; Ba/F3 stable cells, 72 hours, CellTiter-Glo; read-out: ETV6-TRKB IC50) | SMILES | pIC50 [1] | ETV6-TRKB / EML4-ALK v1 I1171N/D1203N [1] | pKi [2] | pKi [3] | pIC50 [4] | ETV6-TRKB / EML4-ALK v1 I1171N [4] | pKi [5] | pKi [6] | pIC50 ([7]; read-out: ETV6-TRKB IC50; Ba/F3 stable cells, 72 hours, CellTiter-Glo) |
| --- | --- | --- | --- | --- | --- | --- | --- | --- | --- | --- |
| < 6.30 | C[C@H]1Oc2cc(cnc2N)-c2c(c(C(=O)N(C)C)nn2CC2CC2)Cc2cn(C)nc2-c2ccc(F)cc21 [Example 8, N,N-dimethyl-(R)-22-amino-3-(cyclopropylmethyl)-16-fluoro-10-methyl-19-methyl-20-oxa-3,4,10,11,23-pentaazapentacyclo[19.3.1.0^2,^6.0^8,^12.0^13,^18]pentacosa-1(24),2(6),4,8,11,13,15, 17,21(25),22-decaene-5-carboxamide] | 7.30 to 10.00 | A (bin A for very high selectivity, ratio≥30-fold) | 6.30 to 7.30 | > 7.30 | 7.30 to 10.00 | A (bin A for very high selectivity, ratio≥30-fold) | > 7.30 | > 7.30 | – |
| – | C[C@H]1Oc2cc(cnc2N)-c2c(C#N)nn(C(=O)N(C)C)c2Cc2cccnc2-c2ccc(F)cc21 [Example 27, N,N-dimethyl-(R)-23-amino-3-cyano-17-fluoro-20-methyl-21-oxa-4,5,12,24-tetraazapentacyclo[20.3.1.0^2,^6.0^8,^13.0^14,^19]hexacosa-1(25),2(6),3,8(13),9,11,14,16,18,22(26),23-undecaene-5-carboxamide] | 7.30 to 10.00 | A (bin A for very high selectivity, ratio≥30-fold) | > 7.30 | > 7.30 | 7.30 to 10.00 | A (bin A for very high selectivity, ratio≥30-fold) | > 7.30 | > 7.30 | 6.30 to 7.30 |
